The source of these data is patent US20190175783A1, “High-Throughput Method for Detecting Tooth Stain Prevention and Removal” (Johnson & Johnson Consumer Inc., priority 2017, published 2019).

Experiment [1] in a line: Stain prevention test (450 nm absorbance of stain displaced after pre-treatment). Here is the method: Stain Prevention Test Procedure: • 1. Form a pellicle coat on hydroxyapatite (HAp) particles by mixing the particles with saliva and incubating the mixture. • 2. Transfer HAp particle/saliva suspension into a large batch filter container. • 3. Filter the saliva supernatant to waste. • 4. Treat pellicle coated HAp particles, sending the supernatant to waste. • 5. Filter the treated, pellicle coated HAp particles, sending the supernatant to waste. • 6. Stain the pre-treated pellicle coated HAp particles by adding a stain solution directly to the filter container and incubate. • 7. Wash any loosely bound stain off the pre-treated, pellicle coated HAp particles. • 8. Elute the stain from the stained, pre-treated, pellicle coated HAp particles 5% PPi solution. • 9. Filter and collect supernatant. • 10. Make UV-Vis absorbance measurements on collected supernatant.
A mass of 1 gram of hydroxyapatite particles (Bio-Rad, Hercules, Calif., catalogue 1570020) was suspended in artificial saliva at a concentration of 10 milligram/100 microliter and allowed to incubate for 15 minutes at 37° C. to form a pellicle coating. A volume of 100 microliter per sample was aliquoted into respective filter vesicle (96-well filter plate or filter tube) and the supernatant was filtered out from the particles (n=3 per sample treatment). The treatment solutions were prepared within a range of 0% to 2% polyphosphate solution in water. The stock 2% w/v solution was serial diluted 1:1 in water to achieve treatment concentrations of polyphosphates of 1%, 0.5%, 0.25%, 0.125%, 0.0625%, and 0.03125% w/v. The 0% solution was a water control. The pellicle coated hydroxyapatite particles were exposed to 200 microliter of treatment solution of polyphosphate for at least 1 minute at room temperature with agitation (120 rpm). The treatment was removed by filtration and the particles were exposed to 100 microliter of a 10% instant coffee stain solution and incubated at 37° C. for 30 minutes. The coffee was removed by filtration and the particles were washed of any loosely bound stain. The residual stain on the particles was displaced with 200 microliter of an alkaline 5% pyrophosphate solution by incubating at room temperature for 10 minutes. The displaced stain was collected in a 96-well plate and absorbance measurements were made (Tecan, Infinite M200 Pro) between 230 and 1000 nm with a 10 nm step increase between measurements. The absorbance at 450 nm was used as a measure of stain prevention, with the lower absorbance values indicating more stain prevented from attaching to hydroxyapatite particle.

Experiment [2] is described as follows: Stain removal test (450 nm absorbance of stain removed). The protocol: • 1. Form a pellicle coat on hydroxyapatite (HAp) particles by mixing the particles with saliva and incubating the mixture. • 2. Transfer HAp particle/saliva suspension into a large batch filter container. • 3. Filter the saliva supernatant to waste. • 4. Stain particles by adding a stain solution directly to the filter container and incubate. • 5. Transfer stained, pellicle coated HAp particle suspension into filter container. • 6. Filter the stained, pellicle coated HAp particles, sending the supernatant to waste. • 7. Re-suspend stained, pellicle coated HAp particles in water, and optionally store for future testing. • 8. Prepare stained, pellicle coated HAp particles for treatment. • 9. Treat stained HAp particles. • 10. Filter and collect the supernatant. • 11. Make UV-Vis absorbance measurements on collected supernatant.
A mass of one gram of hydroxyapatite powder (Bio-Rad, Hercules, Calif., catalogue 1570020) was suspended in artificial saliva (Northeast Laboratories, Winslow, Me., catalogue no. T0300) at a concentration of 10 milligram/100 microliter and allowed to incubate for 15 minutes at 37° C. to form a pellicle coating. The supernatant was filtered out from the particles. The particles were re-suspended in 10% instant coffee stain solution at a concentration of 10 milligram/100 microliter and incubated at 37° C. for 30 minutes. The coffee solution was removed by filtration and the particles were washed of any loosely bound stain. The now coffee stained, pellicle coated hydroxyapatite particles were suspended in water at a concentration of 10 milligram/100 microliter. A volume of 100 microliter per sample was aliquoted into respective filter vesicle (96-well filter plate or filter tube) and the supernatant was filtered out from the particles (n=3 per sample). The treatment solutions were prepared within a range of 0% to 2% polyphosphate solution in water. The stock 2% w/v solution was serial diluted 1:1 in water to achieve treatment concentrations of polyphosphates of 1%, 0.5%, 0.25%, 0.125%, 0.0625%, and 0.03125% w/v. The 0% solution was a water control. After, the stained hydroxyapatite particles were exposed to 200 microliter of respective treatment for 1 or 2 minutes at room temperature with agitation (120 rpm). The polyphosphate treatment solutions ranged from 0.031% to 2% w/v. A negative control, using distilled water as the treatment solution, was tested as a comparison to the polyphosphate treatment solutions. […] Subsequently, absorbance measurements (Tecan, Infinite M200 Pro) were made between 230 and 1000 nm with a 10 nm step increase between measurements. The absorbance at 450 nm was used as a measure of stain removed, where higher absorbance values indicated more stain displaced from the hydroxyapatite particles.

Setting [3] is: concentration from 0.500% to 2.00%.
[4] abbreviates: concentration increased from 0.031% to 0.500%.

polyphosphate [polyphosphate solutions]: the “stain prevention, effect of pre-treatment time” value in experiment [1] (1-, 2- and 10-minute stain prevention pre-treatments) is reported as “no significant difference”. Besides, the “level of stain removal (450 nm absorbance of displaced stain)” value in experiment [1] (setting [3]) is “remained constant”. For the same substance, the “stain prevention (450 nm absorbance)” value in experiment [1] (setting [4]) was “stain prevention increased”. For the same substance, the “450 nm absorbance values of stain displaced as a function of concentration” value in experiment [1] (polyphosphate 0.031% to 2% w/v in water, 1-, 2- and 10-minute pre-treatments, 10% instant coffee stain, FIG. 2) is “clear dose response”. Further, the “stain removal, effect of treatment time” value in experiment [2] (1 versus 2 minute treatments) is reported as “no significant difference”. For the same substance, in experiment [2] (setting [3]), the “level of stain removal (450 nm absorbance)” value is “remained constant”. Moreover, the “stain removal (450 nm absorbance)” value in experiment [2] (setting [4]) is listed as “stain removal increased”. In experiment [2] (polyphosphate 0.031% to 2% w/v in water, 1- and 2-minute treatments, 10% instant coffee stain, FIG. 1), the “450 nm absorbance values of stain removed as a function of concentration” value is “clear dose response”.
